The values below come from ChEMBL document CHEMBL4422678, “Design and synthesis of novel dual-cyclic RGD peptides for αvβ3 integrin targeting” (Bioorg Med Chem Lett, 2019).

Test [1] has as its target T1, Integrin alpha-V/beta-3 (Homo sapiens, UniProt P05106+P06756). The test is described as follows: Binding affinity to alphaVbeta3 integrin in human SKOV3 cells assessed as inhibition of cell adhesion to fibrinogen measured after 2 hrs by MTT assay. The class given is cell-based.
Target sequence in this assay (P05106 27-788 limits assumed): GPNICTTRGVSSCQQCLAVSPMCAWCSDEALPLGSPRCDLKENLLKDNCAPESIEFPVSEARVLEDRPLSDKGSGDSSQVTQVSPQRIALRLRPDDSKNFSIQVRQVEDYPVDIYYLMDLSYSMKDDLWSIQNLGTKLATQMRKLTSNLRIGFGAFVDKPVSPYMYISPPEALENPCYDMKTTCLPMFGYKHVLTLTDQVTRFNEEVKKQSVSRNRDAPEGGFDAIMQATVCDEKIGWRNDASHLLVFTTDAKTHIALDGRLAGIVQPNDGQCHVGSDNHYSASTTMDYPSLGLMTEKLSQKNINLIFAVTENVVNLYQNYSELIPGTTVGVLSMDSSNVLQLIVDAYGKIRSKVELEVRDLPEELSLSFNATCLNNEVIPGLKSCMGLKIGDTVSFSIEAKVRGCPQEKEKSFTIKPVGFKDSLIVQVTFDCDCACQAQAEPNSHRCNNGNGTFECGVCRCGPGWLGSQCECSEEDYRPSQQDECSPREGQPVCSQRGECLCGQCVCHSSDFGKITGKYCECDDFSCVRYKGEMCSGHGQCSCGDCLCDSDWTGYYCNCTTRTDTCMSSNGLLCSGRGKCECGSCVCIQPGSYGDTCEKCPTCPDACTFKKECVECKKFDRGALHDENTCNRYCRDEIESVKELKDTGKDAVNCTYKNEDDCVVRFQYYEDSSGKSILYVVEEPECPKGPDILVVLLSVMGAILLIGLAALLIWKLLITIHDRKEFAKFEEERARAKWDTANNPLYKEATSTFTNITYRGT
Target sequence in this assay (P06756 31-889 limits assumed): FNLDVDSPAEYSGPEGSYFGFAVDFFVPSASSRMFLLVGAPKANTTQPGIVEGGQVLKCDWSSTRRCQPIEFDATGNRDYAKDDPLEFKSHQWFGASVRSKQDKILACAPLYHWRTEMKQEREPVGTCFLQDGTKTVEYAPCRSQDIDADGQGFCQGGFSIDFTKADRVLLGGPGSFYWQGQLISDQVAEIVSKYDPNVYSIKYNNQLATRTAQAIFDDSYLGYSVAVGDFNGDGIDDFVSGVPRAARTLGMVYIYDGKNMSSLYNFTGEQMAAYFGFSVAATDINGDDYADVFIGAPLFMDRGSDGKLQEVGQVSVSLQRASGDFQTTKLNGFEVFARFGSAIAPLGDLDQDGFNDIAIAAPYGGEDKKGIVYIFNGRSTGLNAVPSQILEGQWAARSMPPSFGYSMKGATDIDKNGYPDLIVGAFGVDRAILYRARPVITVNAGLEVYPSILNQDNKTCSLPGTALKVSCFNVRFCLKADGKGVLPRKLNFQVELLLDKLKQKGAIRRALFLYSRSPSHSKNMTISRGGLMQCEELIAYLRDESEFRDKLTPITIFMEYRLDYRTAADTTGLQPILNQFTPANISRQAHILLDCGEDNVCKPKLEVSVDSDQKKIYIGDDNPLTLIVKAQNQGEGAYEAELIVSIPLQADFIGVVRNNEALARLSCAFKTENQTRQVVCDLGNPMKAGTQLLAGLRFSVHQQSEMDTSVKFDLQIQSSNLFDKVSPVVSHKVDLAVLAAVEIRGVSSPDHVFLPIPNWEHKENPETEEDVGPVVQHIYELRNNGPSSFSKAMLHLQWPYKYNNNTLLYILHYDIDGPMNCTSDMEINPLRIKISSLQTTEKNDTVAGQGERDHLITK
Target sequence in this assay (P06756 891-1048 limits assumed): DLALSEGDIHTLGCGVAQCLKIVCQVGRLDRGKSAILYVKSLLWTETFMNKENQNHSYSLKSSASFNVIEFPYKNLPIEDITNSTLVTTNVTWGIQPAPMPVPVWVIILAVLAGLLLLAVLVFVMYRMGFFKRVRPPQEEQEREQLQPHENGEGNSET
Test [2] addresses T1, Integrin alpha-V/beta-3. Description: Binding affinity to alphaVbeta3 integrin in human SKOV3 cells at 200 uM incubated for 3 hrs followed by compound washout prior to DBCO-Cy5 addition and measured after 1 hr by DAPI staining based fluorescence microscopic analysis. The class given is cell-based.
For test [3], the system named is MCF7. Description: Cytotoxicity against human MCF7 cells assessed as inhibition of cell growth after 72 hrs by CCK8 assay. It counts as functional, cell-based. The settings on record: MCF7, 72 h.
Test [4] has as its system SK-OV-3. The test is described as follows: Cytotoxicity against human SKOV3 cells assessed as inhibition of cell growth after 72 hrs by CCK8 assay. It counts as functional, cell-based. Conditions: SK-OV-3, 72 h.
For test [5], the system named is MCF7. Description: Cytotoxicity against human MCF7 cells assessed as inhibition of cell growth at 0.04 uM after 72 hrs by CCK8 assay. The class given is functional. The settings on record: MCF7, 72 h, read-out: GI.
Test [6] relates to SK-OV-3. The test is described as follows: Cytotoxicity against human SKOV3 cells assessed as inhibition of cell growth at 40 uM after 72 hrs by CCK8 assay. It counts as functional. Conditions: SK-OV-3, 72 h, read-out: GI.
Test [7] deals with MCF7. The test is described as follows: Cytotoxicity against human MCF7 cells assessed as inhibition of cell growth at 4 uM after 72 hrs by CCK8 assay. The class given is functional. The settings on record: MCF7, 72 h, read-out: GI.
In test [8] the test system is MCF7. The test is described as follows: Cytotoxicity against human MCF7 cells assessed as inhibition of cell growth at 40 uM after 72 hrs by CCK8 assay. The class given is functional. Conditions: MCF7, 72 h, read-out: GI.
For test [9], the system named is SK-OV-3. Description: Cytotoxicity against human SKOV3 cells assessed as inhibition of cell growth at 400 uM after 72 hrs by CCK8 assay. It counts as functional. Conditions: SK-OV-3, 72 h, read-out: GI.
In test [10] the test system is SK-OV-3. The test is described as follows: Cytotoxicity against human SKOV3 cells assessed as inhibition of cell growth at 0.4 uM after 72 hrs by CCK8 assay. It counts as functional. The settings on record: SK-OV-3, 72 h, read-out: GI.
Test [11] relates to MCF7. Description: Cytotoxicity against human MCF7 cells assessed as inhibition of cell growth at 0.004 uM after 72 hrs by CCK8 assay. It counts as functional. The settings on record: MCF7, 72 h, read-out: GI.
Test [12] relates to MCF7. Description: Cytotoxicity against human MCF7 cells assessed as inhibition of cell growth at 0.4 uM after 72 hrs by CCK8 assay. Conditions: MCF7, 72 h, read-out: GI. It counts as functional.
The subject of test [13] is MCF7. Description: Cytotoxicity against human MCF7 cells assessed as inhibition of cell growth at 0.0004 uM after 72 hrs by CCK8 assay. Conditions: MCF7, 72 h, read-out: GI. It counts as functional.
Test [14] concerns SK-OV-3. Description: Cytotoxicity against human SKOV3 cells assessed as inhibition of cell growth at 4 uM after 72 hrs by CCK8 assay. Conditions: SK-OV-3, 72 h, read-out: GI. It counts as functional.
Test [15] relates to MCF7. Description: Cytotoxicity against human MCF7 cells assessed as inhibition of cell growth at 400 uM after 72 hrs by CCK8 assay. It counts as functional. Conditions: MCF7, 72 h, read-out: GI.
For test [16], the system named is SK-OV-3. Description: Cytotoxicity against human SKOV3 cells assessed as inhibition of cell growth at 0.04 uM after 72 hrs by CCK8 assay. It counts as functional. The settings on record: SK-OV-3, 72 h, read-out: GI.
Test [17] has as its system SK-OV-3. Description: Cytotoxicity against human SKOV3 cells assessed as inhibition of cell growth at 0.0004 uM after 72 hrs by CCK8 assay. It counts as functional. The settings on record: SK-OV-3, 72 h, read-out: GI.
Test [18] deals with SK-OV-3. The test is described as follows: Cytotoxicity against human SKOV3 cells assessed as inhibition of cell growth at 0.004 uM after 72 hrs by CCK8 assay. The class given is functional. Conditions: SK-OV-3, 72 h, read-out: GI.

Calls of active or inactive are those of the source. The calls are words filed in the database; no cut-off is given here. *1 amine or outer side, *2 acyl side, *3 side chain or, on linkers, in order; H or OH if unused. Where a SMILES comes first, the peptide text is derived from it. [ ]: non-standard residue; d: D form. The star is where a group is joined. Dolaproine = CO[C@@H]([C@@H]1CCCN1)[C@@H](C)C(=O)O; X1 = O=C(CCCCC(=O)*)N1Cc2ccccc2C#Cc2ccccc21; Dil = CC[C@H](C)[C@H](NC)[C@@H](CC(=O)O)OC; PABC = O=C(OCc1ccc(N[*:1])cc1)[*:2]; X2 = C[C@@H](N*)[C@@H](O)c1ccccc1; NMeV = CN[C@H](C(=O)O)C(C)C

Turning to `[N-]=[N+]=NCCCC(=O)N[C@@H](CCCNC(=N)N)C(=O)NCC(=O)N[C@@H](CC(=O)O)C(=O)N[C@@H](CCCNC(=N)N)C(=O)NCC(=O)N[C@@H](CC(=O)O)C(=O)NCCCC[C@@H]1NC(=O)[C@H](Cc2ccccc2)NC(=O)[C@H](CC(=O)O)NC(=O)CNC(=O)[C@H](CCCN=C(N)N)NC1=O`, at Integrin alpha-V/beta-3 [1], the IC50 was 25.1 µM.

For the molecule `[N-]=[N+]=NCCCC(=O)N[C@@H](CCCNC(=N)N)C(=O)NCC(=O)N[C@@H](CC(=O)O)C(=O)N[C@@H](CCCNC(=N)N)C(=O)NCC(=O)N[C@@H](CC(=O)N[C@H]1CSSC[C@@H](C(=O)O)NC(=O)[C@H](CC(=O)O)NC(=O)CNC(=O)[C@H](CCCNC(=N)N)NC(=O)[C@H](CC(=O)O)NC(=O)CNC(=O)[C@H](CCCNC(=N)N)NC1=O)C(=O)NCCCC[C@@H]1NC(=O)[C@H](Cc2ccccc2)NC(=O)[C@H](CC(=O)O)NC(=O)CNC(=O)[C@H](CCCN=C(N)N)NC1=O`, at Integrin alpha-V/beta-3 [2], the result was Active. Moreover, the IC50 at Integrin alpha-V/beta-3 [1] was found to be 4.2 µM.

Take `CC[C@H](C)[C@@H]([C@@H](CC(=O)N1CCC[C@H]1[C@H](OC)[C@@H](C)C(=O)N[C@H](C)[C@@H](O)c1ccccc1)OC)N(C)C(=O)[C@@H](NC(=O)[C@H](C(C)C)N(C)C(=O)OCc1ccc(NC(=O)[C@H](CCCNC(=N)N)NC(=O)[C@@H](NC(=O)CCCCC(=O)N2Cc3ccccc3-c3nnn(CCCC(=O)N[C@@H](CCCNC(=N)N)C(=O)NCC(=O)N[C@@H](CC(=O)O)C(=O)N[C@@H](CCCNC(=N)N)C(=O)NCC(=O)N[C@@H](CC(=O)N[C@H]4CSSC[C@@H](C(=O)O)NC(=O)[C@H](CC(=O)O)NC(=O)CNC(=O)[C@H](CCCNC(=N)N)NC(=O)[C@H](CC(=O)O)NC(=O)CNC(=O)[C@H](CCCNC(=N)N)NC4=O)C(=O)NCCCC[C@@H]4NC(=O)[C@H](Cc5ccccc5)NC(=O)[C@H](CC(=O)O)NC(=O)CNC(=O)[C@H](CCCN=C(N)N)NC4=O)c3-c3ccccc32)C(C)C)cc1)C(C)C`: the IC50 came to 19.9 µM with MCF7 [3] and 0.44 µM in the test with SK-OV-3 [4].

Regarding `CC[C@H](C)[C@@H]([C@@H](CC(=O)N1CCC[C@H]1[C@H](OC)[C@@H](C)C(=O)N[C@H](C)[C@@H](O)c1ccccc1)OC)N(C)C(=O)[C@@H](NC(=O)[C@H](C(C)C)N(C)C(=O)OCc1ccc(NC(=O)[C@H](CCCNC(=N)N)NC(=O)[C@@H](NC(=O)CCCCC(=O)N2Cc3ccccc3C#Cc3ccccc32)C(C)C)cc1)C(C)C` (X1-VR[PABC][NMeV]V[Dil][Dolaproine]-X2), the IC50 turned out to be 22.3 µM with MCF7 [3] and 1 µM with SK-OV-3 [4].

Turning to `[N-]=[N+]=NCCCC(=O)NCCCC[C@@H]1NC(=O)[C@H](Cc2ccccc2)NC(=O)[C@H](CC(=O)O)NC(=O)CNC(=O)[C@H](CCCN=C(N)N)NC1=O`, at Integrin alpha-V/beta-3 [1], the IC50 was 110 µM.

Regarding `[N-]=[N+]=NCCCC(=O)N[C@@H](CCCNC(=N)N)C(=O)NCC(=O)N[C@@H](CC(=O)N[C@H]1CSSC[C@@H](C(=O)O)NC(=O)[C@H](CC(=O)O)NC(=O)CNC(=O)[C@H](CCCNC(=N)N)NC(=O)[C@H](CC(=O)O)NC(=O)CNC(=O)[C@H](CCCNC(=N)N)NC1=O)C(=O)N[C@@H](CCCNC(=N)N)C(=O)NCC(=O)N[C@@H](CC(=O)O)C(=O)N[C@@H](CCCNC(=N)N)C(=O)NCC(=O)N[C@@H](CC(=O)O)C(=O)NCCCC[C@@H]1NC(=O)[C@H](Cc2ccccc2)NC(=O)[C@H](CC(=O)O)NC(=O)CNC(=O)[C@H](CCCN=C(N)N)NC1=O`, the IC50 on Integrin alpha-V/beta-3 [1] is 24.5 µM.

On to `[N-]=[N+]=NCCCC(=O)N[C@@H](CCCNC(=N)N)C(=O)NCC(=O)N[C@@H](CC(=O)O)C(=O)N[C@@H](CCCNC(=N)N)C(=O)NCC(=O)N[C@@H](CC(=O)NCCCC[C@@H]1NC(=O)[C@H](Cc2ccccc2)NC(=O)[C@H](CC(=O)O)NC(=O)CNC(=O)[C@H](CCCN=C(N)N)NC1=O)C(=O)NCCCC[C@@H]1NC(=O)[C@H](Cc2ccccc2)NC(=O)[C@H](CC(=O)O)NC(=O)CNC(=O)[C@H](CCCN=C(N)N)NC1=O`, for which the IC50 on Integrin alpha-V/beta-3 [1] was 8.9 µM.

As for `CC[C@H](C)[C@@H]([C@@H](CC(=O)N1CCC[C@H]1[C@H](OC)[C@@H](C)C(=O)N[C@H](C)[C@@H](O)c1ccccc1)OC)N(C)C(=O)[C@@H](NC(=O)[C@H](C(C)C)N(C)C(=O)OCc1ccc(NC(=O)[C@H](CCCNC(=N)N)NC(=O)[C@@H](NC(=O)CCCCC(=O)N2Cc3ccccc3-c3nnn(CCCC(=O)NCCCC[C@@H]4NC(=O)[C@H](Cc5ccccc5)NC(=O)[C@H](CC(=O)O)NC(=O)CNC(=O)[C@H](CCCN=C(N)N)NC4=O)c3-c3ccccc32)C(C)C)cc1)C(C)C`, the IC50 in the test with MCF7 [3] was found to be 93.2 µM; in the test with SK-OV-3 [4] it was 4.5 µM.

For `[N-]=[N+]=NCCCC(=O)N[C@@H](CCCNC(=N)N)C(=O)NCC(=O)N[C@@H](CC(=O)N[C@H]1CSSC[C@@H](C(=O)O)NC(=O)[C@H](CC(=O)O)NC(=O)CNC(=O)[C@H](CCCNC(=N)N)NC(=O)[C@H](CC(=O)O)NC(=O)CNC(=O)[C@H](CCCNC(=N)N)NC1=O)C(=O)N[C@@H](CCCNC(=N)N)C(=O)NCC(=O)N[C@@H](CC(=O)O)C(=O)NCCCC[C@@H]1NC(=O)[C@H](Cc2ccccc2)NC(=O)[C@H](CC(=O)O)NC(=O)CNC(=O)[C@H](CCCN=C(N)N)NC1=O`, the inhibition of growth at 0.04 µM with MCF7 [5] was determined as 17.5%; in the test on SK-OV-3 [16], 14.4%. Moreover, the inhibition of growth at 40 µM in the test with SK-OV-3 [6] is 28.1%; in the test on MCF7 [8] it was 23.8%. Also, the inhibition of growth at 4 µM with MCF7 [7] came out at 22.6%; in the test on SK-OV-3 [14], 23.9%. The inhibition of growth at 400 µM with SK-OV-3 [9] turned out to be 28.8%; in the test on MCF7 [15], 30.2%. In addition, the inhibition of growth at 0.4 µM in the test with SK-OV-3 [10] is 15.4%; in the test on MCF7 [12] it was 17.6%. The results for the inhibition of growth at 0.004 µM with MCF7 [11] and with SK-OV-3 [18] were 13.4% and 19.5%, respectively. At Integrin alpha-V/beta-3 [1], the IC50 turned out to be 2.13 µM. Also, the inhibition of growth at 0.0004 µM worked out at 18.3% with MCF7 [13] and 13.1% in the test with SK-OV-3 [17].
